From patent publication US20250041624A1, “METHOD FOR ENHANCING ACTIVITY OF PHOTOSENSITIZER BY MAGNETIC FIELD” (PEKING UNIVERSITY, priority 2021, published 2025)

Tests used:
[1] = Singlet oxygen quantum yield and lifetime (1270 nm phosphorescence in D2O) under magnetic field; type: physicochemical; conditions: for τΔ (lifetime of singlet oxygen): RB 10 μmol/L in D2O
Description: (4) Singlet oxygen (^1O2), quantum yield (ΦΔ) and lifetime (τΔ) are measured by the following experiment. The phosphorescence of singlet oxygen (^1O2) generated at 1270 nm is determined in air saturated D2O solution of RB (10 μmol/L). The solution is excited at 561 nm.
The magnetic field effect MFs (ΦΔ,B) is calculated by the following formula: ΦΔ,B=ΦΔ,0×(IB/I0), where IB and I0 are peak areas of emission peaks at a magnetic field strength of B and without magnetic field strength, respectively.
The change rate of the magnetic field effect is:
The lifetime (τΔ) of singlet oxygen (^1O2) is affected by the magnetic field effect is as follows: […]

[2] = tested on: HeLa xenograft tumor tissue; experiment: IHC staining (Bax, Bcl-2, cleaved Caspase-3) of xenograft tumor tissue sections for apoptosis; type: in vivo, BALB/c nude mice; conditions: RB added, day 14, FIG. 19
Source text: Test (two): After sacrificing the mice on day 14, tumor tissue and major organs (heart, liver, spleen, lungs and kidney) are collected and detected histologically. Tumor tissue and major organs are fixed by 10% neutral formalin solution. Hematoxylin-Eosin (H&E) staining is used to analyze toxicity of light and magnetic field effects on tumor and normal organs. Terminal deoxynucleotidyl transferase-mediated dUTP nick end labeling (TUNEL) staining is used to detect apoptosis in tumor tissue, and expression of cleaved Caspase-3, Bax and Bcl-2 in tumor tissue is simultaneously detected.

[3] = tested on: HeLa cells; experiment: H2DCFDA fluorescence imaging of intracellular oxidation in HeLa cells; type: cell-based; conditions: RB 30 μmol/L, FIG. 11
Description: (1) HeLa cells are seeded on sterile glass coverslips and placed in DMEM (comprising FBS) plates for 12 h. Then appropriate amount of 30 μmol/L RB or 0.01 mol/L PBS buffer is added, respectively. After 24 h in dark, H2DCFDA (dichlorofluorescein diacetate, ≥97%, purchased from Sigma-Aldrich) is added to give final concentration of 10 μmol/L and cells are incubated for another 30 min, and then are washed 3 times with PBS buffer.
Said HeLa cells are placed under the magnetic field conditions of 0 mT, 250 mT, 800 mT, respectively, without irradiation or with 10 min light (561 nm, 5 mW·cm^−2). Fluorescence images are obtained using Nikon A1R-si laser scanning confocal microscopy (488 nm excitation, 515±15 nm received fluorescence), where H2DCFDA is the indicator that reacts with cellular singlet oxygen ^1O2 to increase fluorescence emission intensity (excitation wavelength is 504 nm, and emission wavelength is 529 nm).
The change rate of fluorescence intensity in Hela cells added with RB under the conditions of light and magnetic field at 0, 250 or 800 mT is shown in FIG. 12. The change rate of fluorescence intensity is (IB−I0)/I0×100%, IB is the fluorescence intensity at magnetic field strength of B, and I0 is the fluorescence intensity without magnetic field. In FIG. 12, ** is the statistical probability p<0.01; *** is p<0.005, and p<0.05 is considered significant.

[4] = Reaction rate of KI with 1O2 (I3− absorbance at 350 nm) under light and magnetic field; type: physicochemical
Description: (1) The photosensitizers Rose Bengal (RB) and potassium iodide KI are dissolved in water, with the concentrations of photosensitizer and KI is 10 μmol/L and 10 mmol/L, respectively in the resulting solution. […] The above UV-vis absorption spectra tests are performed in the strength range of the magnetic field from 0 to 850 mT respectively.
(2) The photosensitizer chlorin e6 (Ce6, Chlorin e6) and potassium iodide KI are dissolved in water, with the concentrations of the photosensitizer and KI of 10 μmol/L and 10 mmol/L in the resulting solutions. In a magnetic field with certain strength, the solutions are exposed to a 635 nm LED lamp (light emitting diode) at a power of 5 mW·cm^−2, and tested for absorption spectra every 15 seconds over 5 min, and the absorbance at 350 nm is recorded to obtain absorbance versus time curves. The above UV-vis absorption spectra are obtained at a magnetic field strength range from 0 to 850 mT, respectively.
External magnetic field is supplied by East Transformer (Beijing) EM4 electromagnets. Ultraviolet-visible absorption spectra are tested with Agilent 8453 UV/Visible spectrometer equipped with Agilent 89090A thermostat (±0.1° C.).
Under irradiation conditions, photosensitizer is excited to produce singlet oxygen ^1O2, and KI reacts with ^1O2 to give I2 and target detector, iodine triion I3^−, characterized by absorption bands centered at 300 and 350 nm in UV-vis absorption spectrum. The reaction rate is R, which is proportional to the slope of absorbance-time curve of iodine triion I3^− at 350 nm.
In the present invention, the magnetic field effects (MFEs) is quantified by mfeR, the change rate of the reaction rate R, mfeR=(RB−R0)/R0×100%, where R0 is the reaction rate at a magnetic field strength of 0 mT and RB is the reaction rate at a magnetic field strength of B mT.
(3) The RB/KI solution in experiment (1) of this Example is placed in a magnetic field modulated with square wave (90 s for the first period, a magnetic field strength of 0 mT for the first 45 s and 100 mT for the last 45 s; 60 s for the last three cycles, a magnetic field strength of 0 mT for the first 30 s and 100 mT for the last 30 s). Under 561 nm LED (Light Emitting Diode) irradiation with 5 mW·cm^−2, absorption spectra are tested every 5 seconds over 5 min. and the absorbance at 350 nm is recorded, to obtain an absorbance-time curve, as shown in FIG. 6.

Compound: O=C1OC2(c3cc(I)c(O)c(I)c3Oc3c2cc(I)c(O)c3I)c2c(Cl)c(Cl)c(Cl)c(Cl)c21 [RB, Rose Bengal]
- τΔ (lifetime of singlet oxygen) ([1]; MF 0 mT): 66.7 ± 2.8 μs
- τΔ (lifetime of singlet oxygen) ([1]; MF 30 mT): 65.8 ± 7.1 μs
- τΔ (lifetime of singlet oxygen) ([1]; MF 50 mT): 60.7 ± 2.0 μs
- τΔ (lifetime of singlet oxygen) ([1]; MF 90 mT): 62.6 ± 3.2 μs
- τΔ (lifetime of singlet oxygen) ([1]; MF 120 mT): 69.5 ± 4.7 μs
- τΔ (lifetime of singlet oxygen) ([1]; MF 150 mT): 62.8 ± 0.8 μs
- τΔ (lifetime of singlet oxygen) ([1]; MF 200 mT): 65.4 ± 4.5 μs
- rate of change of luminescence quantum yield of 1O2 ([1]; RB 10 μmol/L in air saturated D2O, excited at 561 nm, with increasing magnetic field, FIG. 21): −5% to +10%
- apoptosis in tumor sections (IHC) ([2]; magnetic field of 250 mT): apoptosis is more pronounced
- apoptosis in tumor sections (IHC) ([2]; magnetic field of 800 mT): apoptosis is not significant
- fluorescence intensity of HeLa cells (H2DCFDA) ([3]; absence of magnetic field, vs PBS): stronger than that with PBS
- fluorescence intensity of HeLa cells (H2DCFDA) ([3]; irradiation 561 nm 10 min and 250 mT): stronger than those under the absence of magnetic field and the magnetic field of 800 mT
- mfeR (change rate of reaction rate R of KI with 1O2) ([4]; RB 10 μmol/L, KI 10 mmol/L, 561 nm 5 mW·cm−2, maximum at MF=80-135 mT): 46%
- mfeR (change rate of reaction rate R of KI with 1O2) ([4]; RB 10 μmol/L, KI 10 mmol/L, 561 nm 5 mW·cm−2, minimum at MF=14 mT): 33%
- increase of R value on average compared to 0 mT ([4]; RB/KI, square-wave modulated field, 100 mT vs 0 mT, FIG. 7): about 45%
- mfeR (change rate of reaction rate R of KI with 1O2) ([4]; RB, MF from 34 to 355 mT, FIG. 5): > 0%
- mfeR (change rate of reaction rate R of KI with 1O2) ([4]; RB, MF from 50 to 220 mT, FIG. 5): > 20%
